From patent US8765779B2, “Tricyclic derivatives and their pharmaceutical use and compositions” (Cephalon, Inc., priority 2009, dated 2014) come the findings set out here.

In general, Ki refers to a measure of affinity in units of concentration, obtained from inhibition or displacement. The term melting point denotes the temperature, or range, at which the solid turns liquid.

SMILES strings stand for the structures. Where a name gives a salt, the structure may show the parent alone.

T1 sequence (P50406 whole entry): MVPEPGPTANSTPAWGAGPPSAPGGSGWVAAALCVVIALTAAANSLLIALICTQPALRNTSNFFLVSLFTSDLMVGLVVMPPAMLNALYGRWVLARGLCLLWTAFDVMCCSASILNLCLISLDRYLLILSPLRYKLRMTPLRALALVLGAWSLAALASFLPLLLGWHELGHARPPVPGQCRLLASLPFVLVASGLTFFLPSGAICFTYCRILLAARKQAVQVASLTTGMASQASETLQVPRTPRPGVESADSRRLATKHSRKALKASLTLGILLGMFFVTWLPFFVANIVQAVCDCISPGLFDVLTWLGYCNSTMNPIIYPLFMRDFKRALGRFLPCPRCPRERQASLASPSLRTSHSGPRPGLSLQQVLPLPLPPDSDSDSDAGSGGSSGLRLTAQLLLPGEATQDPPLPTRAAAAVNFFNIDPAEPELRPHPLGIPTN

One data set has as its target T1, human 5-HT6 receptor (Homo sapiens, UniProt P50406).
T1 construct: host or cells: CHO-K1 cells, stably transfected; membranes prepared in house
The data set is described as follows: Human 5-HT6 Receptor Binding Assay ([3H]LSD displacement, scintillation beads). The following applies: membranes of CHO-K1 cells with recombinant human 5-HT6, 4 nM [3H]LSD; Table 1, class symbols; read-out: h5-HT6 (Ki).
As to `CCN1CCC2c3ccc(OS(=O)(=O)c4ccc(Cl)cc4)cc3OC2C1` (stereo not drawn) [Example 812], the inhibitory constant (Ki) was above 1 µM.
`O=S(=O)(Oc1ccc2c(c1)OC1CN(CCc3ccccc3)CCC21)c1ccc(Cl)cc1` (stereo not drawn) [Example 813]: the Ki was above 1 µM.
On the same count and under the same terms, as for `CC(=O)N1CCC2c3cc(NS(=O)(=O)c4ccc5ccccc5c4)ccc3OC2C1` (stereo not drawn) [Example 814, N-(2-Acetyl-1,2,3,4,4a,9a-hexahydro[1]benzofuro[2,3-c]pyridin-6-yl)naphthalene-2-sulfonamide], the figure is above 1 µM; as for `CC(=O)N1CCC2c3cc(NS(=O)(=O)c4cc(C)ccc4C)ccc3OC2C1` (stereo not drawn) [Example 815], above 1 µM.
On to `CC(=O)N1CCC2c3cc(NS(=O)(=O)c4c(Cl)nc5sccn45)ccc3OC2C1` (stereo not drawn) [Example 816], for which the inhibition constant Ki was 0.5 to 1 µM.
Still for that read-out and setting: the same measure for `O=S(=O)(Nc1ccc2c(c1)C1CCNCC1O2)c1ccccc1` (stereo not drawn) [Example 817, N-(1,2,3,4,4a,9a-Hexahydro[1]benzofuro[2,3-c]pyridin-6-yl)benzenesulfonamide]: above 1 µM; for `O=S(=O)(Nc1ccc2c(c1)C1CCNCC1O2)c1c(Cl)nc2sccn12` (stereo not drawn) [Example 818]: below 0.5 µM; for `O=S(=O)(Nc1ccc2c(c1)C1CCNCC1O2)c1ccc2ccccc2c1` (stereo not drawn) [Example 819]: below 0.5 µM.
Still for that read-out and setting: the same measure for `Cc1ccc(C)c(S(=O)(=O)Nc2ccc3c(c2)C2CCNCC2O3)c1` (stereo not drawn) [Example 820, N-(1,2,3,4,4a,9a-hexahydro[1]benzofuro[2,3-c]pyridin-6-yl)-2,5-dimethylbenzenesulfonamide]: below 0.5 µM.
Still for that read-out and setting: the same measure for `COc1ccc(S(=O)(=O)Nc2ccc3c(c2)C2CCNCC2O3)cc1` (stereo not drawn) [Example 821]: above 1 µM.
Turning to `COc1cccc(S(=O)(=O)Nc2ccc3c(c2)C2CCNCC2O3)c1` (stereo not drawn) [Example 822], the Ki was above 1 µM.
`O=S(=O)(Nc1ccc2c(c1)C1CCNCC1O2)c1ccc(Cl)cc1` (stereo not drawn) [Example 823]: the inhibition constant Ki was below 0.5 µM.
On the same count and under the same terms, as for `CC(C)c1ccc(S(=O)(=O)Nc2ccc3c(c2)C2CCNCC2O3)cc1` (stereo not drawn) [Example 824], the figure is above 1 µM.
Still for that read-out and setting: as for `O=S(=O)(Nc1ccc2c(c1)C1CCNCC1O2)c1cccc2ccccc12` (stereo not drawn) [Example 825], the figure is below 0.5 µM.
Same read-out and setting: as for `O=S(=O)(Nc1ccc2c(c1)C1CCNCC1O2)c1cccc(Cl)c1` (stereo not drawn) [Example 826], the figure is below 0.5 µM; as for `O=S(=O)(Nc1ccc2c(c1)C1CCNCC1O2)c1ccc(Cl)c(Cl)c1` (stereo not drawn) [Example 827], below 0.5 µM; as for `O=S(=O)(Nc1ccc2c(c1)C1CCNCC1O2)c1cc(Cl)cc(Cl)c1` (stereo not drawn) [Example 828], below 0.5 µM.
Take `O=S(=O)(Nc1ccc2c(c1)C1CCNCC1O2)c1cccc(Cl)c1Cl` (stereo not drawn) [Example 829]: the Ki is below 0.5 µM.
For `Cc1c(S(=O)(=O)Nc2ccc3c(c2)C2CCNCC2O3)sc2ccc(Cl)cc12` (stereo not drawn) [Example 830], the Ki is below 0.5 µM.
Take `O=S(=O)(Cc1ccccc1)Nc1ccc2c(c1)C1CCNCC1O2` (stereo not drawn) [Example 831]: the Ki is above 1 µM.
On to `CC(C)S(=O)(=O)Nc1ccc2c(c1)C1CCNCC1O2` (stereo not drawn) [Example 832], for which the inhibition constant (Ki) is above 1 µM.
For `O=S(=O)(Nc1ccc2c(c1)C1CCNCC1O2)c1cc2ccccc2o1` (stereo not drawn) [Example 833], the Ki was in the range of 0.5 to 1 µM.
Still for that read-out and setting: the same measure for `O=S(=O)(Nc1ccc2c(c1)C1CCNCC1O2)c1cc2ccccc2s1` (stereo not drawn) [Example 834]: below 0.5 µM.
`CN(c1ccc2c(c1)OC1CNCCC21)S(=O)(=O)c1c(Cl)nc2sccn12` (stereo not drawn) [Example 835, 6-Chloro-N-[1,2,3,4,4a,9a-hexahydro[1]benzofuro[2,3-c]pyridin-7-yl]-N-methylimidazo[2,1-b][1,3]thiazole-5-sulfonamide]: the Ki was below 0.5 µM.
Still for that read-out and setting: the same measure for `O=S(=O)(Nc1ccc(Cl)cc1)c1ccc2c(c1)C1CCNCC1O2` (stereo not drawn) [Example 836, N-(4-Chlorophenyl)-1,2,3,4,4a,9a-hexahydro[1]benzofuro[2,3-c]pyridine-6-sulfonamide]: above 1 µM; for `O=S(=O)(Nc1cccc2ccccc12)c1ccc2c(c1)C1CCNCC1O2` (stereo not drawn) [Example 837]: above 1 µM.
The same measure, in the same setting: as for `O=S(=O)(c1ccc2c(c1)C1CCNCC1O2)N1CCc2ccccc21` (stereo not drawn) [Example 838], the figure is 0.5 to 1 µM; as for `O=S(=O)(Nc1ccccc1F)c1ccc2c(c1)C1CCNCC1O2` (stereo not drawn) [Example 839], above 1 µM.
The same measure, in the same setting: the same measure for `O=S(=O)(Nc1ccccc1Cl)c1ccc2c(c1)C1CCNCC1O2` (stereo not drawn) [Example 840]: above 1 µM.
For `COc1ccccc1NS(=O)(=O)c1ccc2c(c1)C1CCNCC1O2` (stereo not drawn) [Example 841], the inhibition constant Ki was above 1 µM.
Turning to `O=S(=O)(Nc1cccc(F)c1F)c1ccc2c(c1)C1CCNCC1O2` (stereo not drawn) [Example 842], the inhibition constant Ki is above 1 µM.
With `O=S(=O)(Nc1cc(Cl)cc(Cl)c1)c1ccc2c(c1)C1CCNCC1O2` (stereo not drawn) [Example 843], the inhibitory constant (Ki) is above 1 µM.
The same measure, in the same setting: as for `O=S(=O)(Nc1ccc(Cl)cc1Cl)c1ccc2c(c1)C1CCNCC1O2` (stereo not drawn) [Example 844], the figure is above 1 µM; as for `O=S(=O)(c1ccc2c(c1)C1CCNCC1O2)N1CCN(c2ccccc2)CC1` (stereo not drawn) [Example 845], above 1 µM.
Still for that read-out and setting: as for `O=S(=O)(Nc1cccc(F)c1)c1ccc2c(c1)C1CCNCC1O2` (stereo not drawn) [Example 846], the figure is above 1 µM; as for `O=S(=O)(Nc1ccc(F)cc1)c1ccc2c(c1)C1CCNCC1O2` (stereo not drawn) [Example 847], above 1 µM; as for `O=S(=O)(Nc1ccccc1)c1ccc2c(c1)C1CCNCC1O2` (stereo not drawn) [Example 848], above 1 µM.
Take `O=S(=O)(NC1CCCCC1)c1ccc2c(c1)C1CCNCC1O2` (stereo not drawn) [Example 849, N-cyclohexy1-1,2,3,4,4a,9a-hexahydro[1]benzofuro[2,3-c]pyridine-6-sulfonamide]: the inhibitory constant (Ki) is above 1 µM.
In the case of `COc1cccc(NS(=O)(=O)c2ccc3c(c2)C2CCNCC2O3)c1` (stereo not drawn) [Example 850], the inhibition constant (Ki) is above 1 µM.
On the same count and under the same terms, as for `Cc1ccc(NS(=O)(=O)c2ccc3c(c2)C2CCNCC2O3)cc1F` (stereo not drawn) [Example 851], the figure is above 1 µM; as for `O=S(=O)(Nc1ccc(Cl)c(Cl)c1)c1ccc2c(c1)C1CCNCC1O2` (stereo not drawn) [Example 852], above 1 µM.
Regarding `O=S(=O)(Nc1cccc(Cl)c1)c1ccc2c(c1)C1CCNCC1O2` (stereo not drawn) [Example 853], the inhibitory constant (Ki) lay in the range of 0.5 to 1 µM.
Same read-out and setting: the same measure for `O=S(=O)(NCc1ccc(Cl)cc1)c1ccc2c(c1)C1CCNCC1O2` (stereo not drawn) [Example 854]: above 1 µM; for `O=S(=O)(NCCc1ccccc1)c1ccc2c(c1)C1CCNCC1O2` (stereo not drawn) [Example 855]: above 1 µM.
For the compound `O=S(=O)(c1ccc2c(c1)C1CCNCC1O2)N1CCc2ccccc2C1` (stereo not drawn) [Example 856], the inhibition constant Ki is below 0.5 µM.
Turning to `O=S(=O)(NC1Cc2ccccc2C1)c1ccc2c(c1)C1CCNCC1O2` (stereo not drawn) [Example 857], the Ki was above 1 µM.
On the same count and under the same terms, the same measure for `CN(Cc1ccccc1)S(=O)(=O)c1ccc2c(c1)C1CCNCC1O2` (stereo not drawn) [Example 858]: above 1 µM; for `COc1cc2c(cc1OC)CN(S(=O)(=O)c1ccc3c(c1)C1CCNCC1O3)CC2` (stereo not drawn) [Example 859]: above 1 µM.
As for `O=S(=O)(c1ccc2c(c1)C1CCNCC1O2)N1CCC2CCCCC2C1` (stereo not drawn) [Example 860], the Ki was above 1 µM.
Consider `O=S(=O)(c1ccc2c(c1)C1CCNCC1O2)N1CCC(c2ccccc2)CC1` (stereo not drawn) [Example 861], for which the inhibition constant (Ki) lay within 0.5 to 1 µM.
Still for that read-out and setting: the same measure for `O=S(=O)(c1ccc2c(c1)C1CCNCC1O2)N1CCC2(CC1)OCc1ccccc12` (stereo not drawn) [Example 862]: above 1 µM.

The data set is the same for the next values; noted with them: membranes of CHO-K1 cells with recombinant human 5-HT6, 4 nM [3H]LSD; specific data; read-out: h5-HT6 (Ki).
Consider `Cc1ccc(C)c(S(=O)(=O)Nc2ccc3c(c2)C2CCNCC2O3)c1` (stereo not drawn) [Example 820, N-(1,2,3,4,4a,9a-hexahydro[1]benzofuro[2,3-c]pyridin-6-yl)-2,5-dimethylbenzenesulfonamide], for which the Ki was found to be 0.472 µM.

Test system in a further data set: not given
Test: not given
Conditions: not given
`CC1(C)CNC2(CCOCC2)c2oc3cc(S(=O)(=O)c4cccc(F)c4)ccc3c21` (as salt: HCl) [Example 2, 7-[(3-fluorophenyl)sulfonyl]-4,4-dimethyl-2′,3,3′,4,5′,6′-hexahydro-2H-spiro[1-benzofuro[2,3-c]pyridine-1,4′-pyran]] gave a melting point of 286 to 288 °C.
Still for that read-out and setting: as for `CC(C)Oc1cccc(S(=O)(=O)c2ccc3c4c(oc3c2)C(C)(C)NCC4)c1` (as salt: HCl) [Example 15, 1,1-dimethyl-7-{[3-(propan-2-yloxy)phenyl]sulfonyl}-1,2,3,4-tetrahydro[1]benzofuro[2,3-c]pyridine], the figure is 243 to 245 °C; as for `COc1cccc(S(=O)(=O)c2ccc3c4c(oc3c2)C(C)(C)NCC4)c1` (as salt: HCl) [Example 16, 7-[(3-methoxyphenyl)sulfonyl]-1,1-dimethyl-1,2,3,4-tetrahydro[1]benzofuro[2,3-c]pyridine], 335 °C (dec.).
On the same count and under the same terms, as for `CC1(C)NCCc2c1oc1cc(S(=O)(=O)c3cccc(Cl)c3)ccc21` (as salt: HCl) [Example 17, 7-[(3-chlorophenyl)sulfonyl]-1,1-dimethyl-1,2,3,4-tetrahydro[1]benzofuro[2,3-c]pyridine], the figure is > 200 °C (dec.); as for `CC1(C)NCCc2c1oc1cc(S(=O)(=O)c3ccc(F)c(Cl)c3)ccc21` (as salt: HCl) [Example 18, 7-[(3-chloro-4-fluorophenyl)sulfonyl]-1,1-dimethyl-1,2,3,4-tetrahydro[1]benzofuro[2,3-c]pyridine], > 200 °C (dec.); as for `Cc1cccc(S(=O)(=O)c2ccc3c4c(oc3c2)C(C)(C)NCC4)n1` (as salt: HCl) [Example 19, 1,1-dimethyl-7-[(6-methylpyridin-2-yl)sulfonyl]-1,2,3,4-tetrahydro[1]benzofuro[2,3-c]pyridine], 305 to 310 °C.
Still for that read-out and setting: as for `O=S(=O)(c1cccc(F)c1)c1ccc2c3c(oc2c1)C1(CCC1)NCC3` (as salt: HCl) [Example 25, 7-[(3-fluorophenyl)sulfonyl]-3,4-dihydro-2H-spiro[1-benzofuro[2,3-c]pyridine-1,1′-cyclobutane]], the figure is > 200 °C (dec.); as for `CC(C)Oc1cccc(S(=O)(=O)c2ccc3c4c(oc3c2)C2(CCC2)NCC4)c1` (as salt: HCl) [Example 26, 7-{[3-(propan-2-yloxy)phenyl]sulfonyl}-3,4-dihydro-2H-spiro[1-benzofuro[2,3-c]pyridine-1,1′-cyclobutane]], > 200 °C (dec.).
